Reference: patent US20230125429A1 (priority 2017, published 2023)
“And” between values parts separate entries of the source, which are not always exact repeats. Equal entries are not always repeated. “Also recorded” adds a separate entry of the source.

Columns and labels:
LOX IMV1 = experiment: Growth inhibitory effect, one hour exposure (IncuCyte Zoom); assay type: cell-based, human; conditions: LOX IMV1, Melanoma
Experimental: (§1) Cancer cell lines and immortalized human cell lines were cultured in 1640 tissue culture medium (Corning, USA) with 10% fetal bovine serum in a standard tissue culture condition of 37° C. and 5% CO2.
(§2) For primary hepatocytes, the seeded cells were monitored for up to 48 hours either without any treatment (as a control) or with various types of treatments. For primary keratinocytes, cells in 48-well plates were monitored either without any treatment or with various types of treatment for up to 96 hours. For HepG2, cells 96-well plates were monitored either without any treatment or with various types of treatments for up to 48 hours. The IncuCyte Zoom was set to take a set of images at fixed locations (4 per well for 96-well plates and 16 per well for 48-well plates and 12-well plates) every three hours.
(§3) The one-hour exposure is intended to simulate the transient high concentrations within the liver as the results of either the first pass effects of some orally administered drugs, or of locally delivered drugs, anticipating that such a short term exposure is nevertheless sufficient to affect certain cell surface receptors without causing any significant off-target effects due to intracellular absorption. Such a strategy would also reduce false hits due to reversible cell cycle arrests.
(§4) To address this possibility, we investigated whether other cell lines, including other HCC cell lines, cell lines from other type of cancers, as well as non-cancer immortalized/transformed cell lines, were also sensitive to Triptonide. Specifically, a total of 51 human cancer cell lines, representing 10 types of human cancers (6 non-small cell lung cancer cell lines, 5 colon cancer cell lines, 5 central nerve system cancer cell lines, 8 Melanomas cell lines, 4 ovarian cancer cell lines, 4 renal cancer cell lines, 2 prostate cancer cell lines, 3 breast cancer cell lines, 7 hepatocellular carcinoma cell lines, and 4 gastric cancer cell lines) were analyzed.

SW-620 = experiment: as above; assay type: cell-based, human; conditions: SW-620, Colon
Experimental: as §1, §2, §3, §4

NCI-H23 = experiment: as above; assay type: cell-based, human; conditions: NCI-H23, Non-Small Cell Lung
Experimental: as §1, §2, §3, §4

NCI/ADR-RES = experiment: as above; assay type: cell-based, human; conditions: Ovarian
Experimental: as §1, §2, §3, §4

SK-MEL-28 = experiment: as above; assay type: cell-based, human; conditions: SK-MEL-28, Melanoma
Experimental: as §1, §2, §3, §4

[1] = tested on: mimosine-treated HepG2 cells; experiment: One-hour treatment of mimosine-treated HepG2 cells, live cell imaging; assay type: cell-based, human
[2] = tested on: 51 human cancer cell lines; experiment: Growth inhibitory effect, one hour exposure, whole panel; assay type: cell-based; conditions: mean over the 51 cancer cell lines
Experimental: as §1
For primary hepatocytes, the seeded cells were monitored for up to 48 hours either without any treatment (as a control) or with various types of treatments. For primary keratinocytes, cells in 48-well plates were monitored either without any treatment or with various types of treatment for up to 96 hours. For HepG2, cells 96-well plates were monitored either without any treatment or with various types of treatments for up to 48 hours. […]
as §4

cAMP = experiment: Measurement of cAMP levels in HepG2 cells; assay type: cell-based, human
HepG2 cells = experiment: Blocking the AC-cAMP-PKA pathway, growth of HepG2 cells; assay type: cell-based, human
PKA = experiment: Measurement of PKA activity in HepG2 cells; assay type: cell-based, human
[3] = tested on: serum starved HepG2 cells; assay type: cell-based, human
[4] = Lethal dose and maximum tolerable dose in mice; assay type: in vivo
Experimental: Thus, a second preliminary experiment was carried out in tumor-bearing nude mice to determine whether an antitumor effect could be achieved within the non-toxic range. […] Thus, the 25 mg/kg once every other day regimen was selected for the preclinical experiment. The volumes of individual tumors were assessed by bioluminescent imaging.
Thus, we first determined the lethal dose and the maximum tolerable dose (MTD) of Triptonide for mice based on a once every other day regimen. […] It is noted that once every other day might not be the optimal scheme. Nonetheless, we decided to begin with this scheme and the 25% value of the MTD, i.e. 25 mg/kg.

[5] = tested on: primary mouse hepatocytes (PMH); experiment: Growth of primary mouse hepatocytes, one-hour treatment; assay type: cell-based; conditions: as high as 320 µM
[6] = cited from earlier work
wild-type keratinocytes = experiment: Growth of wild-type primary keratinocytes, short-term treatment; assay type: cell-based, mouse
[7] = tested on: mimosine treated HepG2 cells; experiment: Cell cycle analysis by flow cytometry (PI staining); assay type: cell-based, human; conditions: for G2/M cells: 1 µM
[8] = rodents, intraperitoneal injection

## CC(C)[C@]12O[C@H]1[C@@H]1O[C@@]13[C@@]1(C)CCC4=C(COC4=O)[C@@H]1C[C@@H]1O[C@@]13C2=O [Triptonide]
LOX IMV1
  IC50: 1.77 µM
SW-620
  IC50: 11.6 µM
NCI-H23
  IC50: 0.41 µM and 0.415 µM
NCI/ADR-RES
  IC50: 8.34 µM
SK-MEL-28
  IC50: 17.8 µM
[1]
  effect of treatment applied at hour 0 after release: became static, but no significant accumulation of mitotic catastrophe cells
  sensitivity to mitotic catastrophe-inducing effect by time of treatment: only sensitive when the treatment was applied at 2 hours
[2]
  IC50: 7.31 µM and 7.66 µM
cAMP; 1 µM at 2 hours after mimosine treatment, serum-free
  amplitude of cAMP elevation versus control: about 4 folds
cAMP; 1 µM at non-sensitive time, 4 hours after mimosine treatment
  levels of cAMP: modest elevation
cAMP; treatment 2 hours after mimosine, Trypsin 50 nM, Triptonide 1 µM, serum-free
  levels of cAMP: two waves of elevation
HepG2 cells
  effect on growth of HepG2 cells: significant growth inhibitory effect
PKA; 1 µM, serum free, first 30 minutes after treatment
  levels of PKA activities, acute: two-wave elevation
PKA; one-hour treatment in regular medium (Trypsin 50 nM, Triptonide 1 µM), hour 9 and 10 after mimosine
  level of PKA activity around G2/M transition: remained largely unchanged
[3]
  cells exhibiting the features of mitotic catastrophe: approximately 60%
  effect on growth of serum starved HepG2 cells: no significant impacts; also recorded: growth inhibitory only when it was administered at the 0 and 2 hours after the starvation
[4]; 100 mg/kg three times a day, four-hour interval, within four days
  mortality: all animals were dead
[4]; 200 mg/kg oral, once every other day, within four days
  death: 100%
[4]; up to 100 mg/kg oral, once every other day
  adverse effects: did not cause any significant adverse effects; also recorded: did not result in any significant adverse effects
[5]
  growth inhibitory effect on PMHs: no significant growth inhibitory effect
[6]; rodent, following an oral dosing
  change of plasma concentration on redistribution: several dozen folds of decrease
[6]; [8]
  T1/2 alpha: 0.17 to 0.195 h
  T1/2 beta: 4.95 to 6.49 h
wild-type keratinocytes
  IC50: 1.29 µM
  effect on growth of wild-type keratinocytes: effective in inhibiting the growth; also recorded: complete growth inhibition; also recorded: significant growth suppressive effect
[7]; 11 hours after mimosine release
  G2/M cells: 82%
[7]; 24 hours after mimosine release
  G2/M cells: 80%
[7]; 37 hours after mimosine release
  G2/M cells: 78%
[7]; 10 µM, by 24 hours
  sub-G1 (<2N, apoptotic) population: significant peaks of the sub-G1
